# Target: Sodium-dependent dopamine transporter (Rattus norvegicus, UniProt P23977)
# Experiment: Radioligand Binding Assay
# Settings: not given
# Procedure: The assay was initiated by the addition of membranes to binding buffer containing test compound, blocker, and radioligand. The samples were incubated in triplicate. Brandel cell harvesters were used to filter the samples over Whatman GF/B filters, which were presoaked in wash buffer. The 125I retained on the filters was measured in a gamma counter.
# Chain of Sodium-dependent dopamine transporter (P23977 whole entry): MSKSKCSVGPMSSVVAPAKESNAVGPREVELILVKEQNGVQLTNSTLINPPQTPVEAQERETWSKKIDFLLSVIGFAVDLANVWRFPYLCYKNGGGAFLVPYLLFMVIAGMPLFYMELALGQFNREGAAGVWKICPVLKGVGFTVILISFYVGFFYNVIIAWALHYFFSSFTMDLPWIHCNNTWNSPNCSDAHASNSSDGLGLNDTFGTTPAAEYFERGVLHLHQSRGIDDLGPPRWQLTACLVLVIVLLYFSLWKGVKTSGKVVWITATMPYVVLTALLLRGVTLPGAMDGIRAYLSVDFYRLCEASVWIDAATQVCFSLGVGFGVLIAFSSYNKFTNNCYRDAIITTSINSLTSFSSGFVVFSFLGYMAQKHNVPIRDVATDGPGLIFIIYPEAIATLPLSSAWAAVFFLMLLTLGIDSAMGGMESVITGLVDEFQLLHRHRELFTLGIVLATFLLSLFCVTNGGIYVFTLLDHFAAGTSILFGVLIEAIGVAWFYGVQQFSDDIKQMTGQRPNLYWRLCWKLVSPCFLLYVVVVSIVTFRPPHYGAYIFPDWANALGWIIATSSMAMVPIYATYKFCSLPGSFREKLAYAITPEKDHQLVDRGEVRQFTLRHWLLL
row,SMILES,Ki [nM]
1,CC(O)(Cc1ccccc1)CN1CCN(CCOC(c2ccc(F)cc2)c2ccc(F)cc2)CC1 (configuration not stated) [1-(4-{2-[bis(4-fluorophenyl)methoxy]ethyl}piperazin-1-yl)-2-methyl-3-phenylpropan-2-ol],57
2,C=C(Cc1ccccc1)CN1CCN(CCOC(c2ccc(F)cc2)c2ccc(F)cc2)CC1 [1-(2-benzylprop-2-en-1-yl)-4-{2-[bis(4-fluorophenyl)methoxy]ethyl}piperazine],100
3,O=C(CN1CCN(CCOC(c2ccc(F)cc2)c2ccc(F)cc2)CC1)c1ccccc1 [2-(4-{2-[bis(4-fluorophenyl)methoxy]ethyl}piperazin-1-yl)-1-phenylethan-1-one],54
4,FC[C@H](Cc1ccccc1)N1CCN(CCOC(c2ccc(F)cc2)c2ccc(F)cc2)CC1 [1-{2-[bis(4-fluorophenyl)methoxy]ethyl}-4-[(2S)-1-fluoro-3-phenylpropan-2-yl]piperazine],140
5,CC(O)(Cc1ccccc1)CN1CCN(CCOC(c2ccccc2)c2ccccc2)CC1 (configuration not stated) [1-{4-[2-(diphenylmethoxy)ethyl]piperazin-1-yl}-2-methyl-3-phenylpropan-2-ol],150
6,O=C(CN1CCN(CCOC(c2ccccc2)c2ccccc2)CC1)c1ccccc1 [2-{4-[2-(diphenylmethoxy)ethyl]piperazin-1-yl}-1-phenylethan-1-one],450
7,C=C(Cc1ccccc1)CN1CCN(CCOC(c2ccccc2)c2ccccc2)CC1 [1-(2-benzylprop-2-en-1-yl)-4-[2-(diphenylmethoxy)ethyl]piperazine],410
8,O=C(Cc1ccccc1)CN1CCN(CCOC(c2ccccc2)c2ccccc2)CC1 [1-{4-[2-(diphenylmethoxy)ethyl]piperazin-1-yl}-3-phenylpropan-2-one],10
9,FC[C@@H](Cc1ccccc1)N1CCN(CCOC(c2ccc(F)cc2)c2ccc(F)cc2)CC1 [1-{2-[bis(4-fluorophenyl)methoxy]ethyl}-4-[(2R)-1-fluoro-3-phenylpropan-2-yl]piperazine],110
10,O=C(Cc1ccccc1)CN1CCN(CCOC(c2ccc(F)cc2)c2ccc(F)cc2)CC1 [1-(4-{2-[bis(4-fluorophenyl)methoxy]ethyl}piperazin-1-yl)-3-phenylpropan-2-one],6.5

# Same assay, conditions: pH 7.4; 4 °C
row,SMILES,Ki [nM]
1,CO[C@H](Cc1ccccc1)CN1CCN(CCOC(c2ccc(F)cc2)c2ccc(F)cc2)CC1 [1-{2-[bis(4-fluorophenyl)methoxy]ethyl}-4-[(2R)-2-methoxy-3-phenylpropyl]piperazine],27
2,Fc1ccc(C(OCCN2CCN(C[C@@H](F)Cc3ccccc3)CC2)c2ccc(F)cc2)cc1 [1-{2-[bis(4-fluorophenyl)methoxy]ethyl}-4-[(2S)-2-fluoro-3-phenylpropyl]piperazine],2.7
3,C[C@@H](Cc1ccccc1)CN1CCN(CCOC(c2ccc(F)cc2)c2ccc(F)cc2)CC1 [1-[(2S)-2-benzylpropyl]-4-{2-[bis(4-fluorophenyl)methoxy]ethyl}piperazine],17
4,C[C@H](Cc1ccccc1)CN1CCN(CCOC(c2ccc(F)cc2)c2ccc(F)cc2)CC1 [1-[(2R)-2-benzylpropyl]-4-{2-[bis(4-fluorophenyl)methoxy]ethyl}piperazine],17
5,C=C(CCN1CCN(CCOC(c2ccc(F)cc2)c2ccc(F)cc2)CC1)c1ccccc1 [1-{2-[bis(4-fluorophenyl)methoxy]ethyl}-4-(3-phenylbut-3-en-1-yl)piperazine],18
6,Fc1ccc(C(OCCN2CCN(C[C@H](F)Cc3ccccc3)CC2)c2ccc(F)cc2)cc1 [1-{2-[bis(4-fluorophenyl)methoxy]ethyl}-4-[(2R)-2-fluoro-3-phenylpropyl]piperazine],22
7,CO[C@@H](Cc1ccccc1)CN1CCN(CCOC(c2ccc(F)cc2)c2ccc(F)cc2)CC1 [1-{2-[bis(4-fluorophenyl)methoxy]ethyl}-4-[(2S)-2-methoxy-3-phenylpropyl]piperazine],29
8,N[C@H](Cc1ccccc1)CN1CCN(CCOC(c2ccc(F)cc2)c2ccc(F)cc2)CC1 [(2R)-1-(4-{2-[bis(4-fluorophenyl)methoxy]ethyl}piperazin-1-yl)-3-phenylpropan-2-amine],20
9,C=C(CCN1CCN(CCOC(c2ccccc2)c2ccccc2)CC1)c1ccccc1 [1-[2-(diphenylmethoxy)ethyl]-4-(3-phenylbut-3-en-1-yl)piperazine],30
10,CC(O)(CCN1CCN(CCOC(c2ccc(F)cc2)c2ccc(F)cc2)CC1)c1ccccc1 (configuration not stated) [4-(4-{2-[bis(4-fluorophenyl)methoxy]ethyl}piperazin-1-yl)-2-phenylbutan-2-ol],4
11,N[C@@H](Cc1ccccc1)CN1CCN(CCOC(c2ccc(F)cc2)c2ccc(F)cc2)CC1 [(2S)-1-(4-{2-[bis(4-fluorophenyl)methoxy]ethyl}piperazin-1-yl)-3-phenylpropan-2-amine],39
12,CC(O)(CCN1CCN(CCOC(c2ccccc2)c2ccccc2)CC1)c1ccccc1 (configuration not stated) [4-{4-[2-(diphenylmethoxy)ethyl]piperazin-1-yl}-2-phenylbutan-2-ol],7

# — BindingDB's records for doi:10.1021/jm701270n (National Taiwan University, 2008)
